Source: patent US7271260B2, “3,4-dihydroquinazoline derivatives as T-type calcium channel blockers and method of preparing the same” (Korea Institute of Science and Technology, priority 2004, dated 2007)
Like-named read-outs stand apart in the source and are kept apart here.

What was measured:
[1] = tested on: N-type (HVA) Ca2+ channel; assay: Patch clamp of high voltage-activated calcium current in MPG (major pelvic ganglion) neurons; type: cell-based, rat; conditions: 10 μM; for selectivity for the sub-types of the calcium channel (T-type LVA vs N-type HVA): from Table 3; for Inhibitory effect, Ca2+ channel N-type (HVA): MPG neuron, n.i. = no inhibitory effect
Experimental: In order to examine the selectivity of the compound of the present invention for other ion channels, the inhibitory effects of KYS05001, KYS05041 and KYS05042 on […] and high voltage-activated Ca2+ channel (HVA) were measured according to a conventional method (Lee, J.-H. et al., J. Neurophysiol. 2002, 87, 2844-2850) using MPG (major pelvic ganglion).
Male Sprague-Dawley rats having about 250 g of an average body weight were employed as experimental animals. After the rats were anesthetized with sodium pentobarbital (50 mg/kg, i.p.), the abdomen was cut open immediately. MPG located on the left side of the prostate was extracted and then transferred in cold (4° C.) Hank's balanced salt solution (HBSS, GibcoBRL). The connective tissue encompassing the ganglion was stripped therefrom and a small gap was made carefully on the naked ganglion with a sharp knife. Then, the ganglion was cultured in 10 ml of modified Earle's balanced salt solution (EBSS, pH 7.4, GibcoBRL) supplemented with 0.7 mg/ml of collagenase (type D), 0.3 mg/ml of trypsin and 0.1 mg/ml of DNAse type I at 35° C. for 1 hour (Zhu et al., J. Physiol. Lond. 1995, 489, 363-375). At this time, 3.6 g/l of glucose and 10 mM HEPES were added to EBSS. After the cultivation was completed, the culture flask was shaken to separate call clusters into a single nerve cell and subjected to centrifugation at 1000 rpm with a clinical centrifuge (International Equipment Company, Mass., U.S.A.). The separated single nerve cells were re-suspended in MEM (GibcoBRL) supplemented with 10% fetal bovine serum, 1% glutamine and 1% penicillin/streptomycin. They were then spread on a polystyrene culture dish (35 mm) coated with poly-L-lysine. The culture dish was incubated at 37° C. humidified incubator (95% air-5% CO2) and the cells were used in the following experiment within 24 hours after the separation.
The voltage-dependent calcium and sodium current were recorded according to a typical patch clamping method using a patch clamp amplifier (Axopatch 1D, Axon Instruments, Foster City, Calif., U.S.A.) at a whole-cell ruptured configuration (Hamill et al., Pflügers Arch. 1981, 391, 85-100). An electrode was made from a borosilicate glass capillary tube (outer diameter; 1.65 mm, inner diameter; 1.2 mm, Corning 7052, Garner Glass Co., Claremont, Calif., U.S.A.) using P-97 Flaming-Brown micropipette puller (Sutter Instrument Co., Novato, Calif., U.S.A.) and forged smoothly by heating with a microforge. The electrode showing 1˜3 MΩ of resistance when filled with a solution was used for the following experiment. The culture dish containing the nerve cells was placed on an inverted microscope and the cell exterior solution was flowed into the dish at a flow rate of about 1˜2 ml/min. The membrane capacitance and series resistance were corrected by 80% or more with an amplifier. The voltage generation and record of calcium current were carried out using S4 software (provided by Dr. Stephen R. Ikeda, National Institute on Alcohol Abuse and Alcoholism, NIH, USA) equipped in Macintosh computer, which was connected to an analogue/digital converter (Digidata 1200, Axon Instruments Co.). The calcium current, which passed through a low band pass filter at 2˜5 kHz, was stored in Macintosh computer and analyzed with IGOR PRO (Wave-Metrics, Lake Oswego, Oreg., U.S.A.). All the experiments were conducted at a room temperature ranging from 20 to 22° C.
The electrode for measuring the calcium current was filled with the solution comprising 120 mM N-methyl-D-glucamine (NMG) methanesulfonate (MS), 20 mM tetraethylammonium (TEA)-MS, 20 mM HCl, 11 mM EGTA, 10 mM HEPES, 1 mM CaCl2, 4 mM MgATP, 0.3 mM Na2GTP and 14 mM tris-phosphocreatine (pH 7.2, 290 mOsm). The extracellular infusion fluid was composed of 140 mM MS, 145 mM TEA-OH, 10 mM HEPES, 15 mM glucose, 10 mM CaCl2 and 0.0003 mM tetrodotoxin (TTX, pH 7.4, 320 mOsm). […]

[2] = molecular target: T1, α1G T-type calcium channel (Rattus norvegicus, UniProt O54898); assay: Whole cell patch clamp on HEK 293 cells expressing α1G T-type calcium channel; type: cell-based; conditions: for inhibition at 10 µM: HEK293; for channel inhibitory effect relative to Mibefradil (comparing IC50 values): HEK 293 cells (α1G), IC50 compared with Mibefradil; for IC50: read-out: IC50, HEK293 cells (α1G)
T1 construct: expressed in transfected cells; Perez-Reyes, University of Virginia
Experimental: HEK 293 cells were cultured in Dulbecco's modified Eagle's medium (DMEM) supplemented with 10% fetal bovine serum (FBS) and 1% penicillin/streptomycin (v/v) in 36.5° C. humidified incubator (95% air-5% CO2). The culture solution was replaced with a fresh medium every 3 to 4 days and the cultured cells were subjected to sub-culture every week. At this time, the culture solution was treated with G-418 (0.5 mg/ml) solution so that only HEK 293 cells expressing α1G T-type calcium channel can grow. The cells used for the T-type calcium channel activity assay were cultured on a cover slip coated with poly-L-lysine (0.5 mg/ml) whenever sub-cultured and their calcium channel activity was recorded 2 to 7 days after the cultivation. The current of the T-type calcium channel at a single cell level was measured according to an electrophysiological whole cell patch clamping method using EPC-9 amplifier (HEKA, German). At this time, a cell exterior solution [140 mM NaCl, 2 mM CaCl2, 10 mM HEPES (pH 7.4)] and a cell interior solution [KCl 130 mM, HEPES 10 mM, EGTA 11 mM, MgATP 5 mM (pH 7.4)] were employed. The inward current caused by the T-type calcium channel activation was measured according to a T-type calcium channel protocol activated at low current. Such current occurs when the cells were converted into a whole-cell recording mode by stabbing a microglass electrode having 3-4 MΩ resistance, which was filled with the cell interior solution into a single cell and depolarized at −30 mV (50 ms duration period) every 10 seconds with fixing membrane potential to −100 mV.
In order to confirm whether the cells and methods used in Test Example 2 are a suitable screening system for selecting T-type calcium channel blockers, the results obtained in Example 2 were compared with those of α1G T-type calcium channel study reported in a public document (Monteil, A. et al., J. Biol. Chem. 275, 6090-6100, 2000). […] Thus, the candidate compounds were subjected to a test for their inhibitory effects on the T-type calcium channel according to the screening system of the present invention, as follows. Each compound was dissolved in 100% dimethylsulfoxide (DMSO) to prepare 10 mM stock solution. The inhibitory effect on the T-type calcium channel current was examined in 10 μM sample solution (containing 0.1% DMSO) prepared by diluting the stock solution by 1000-fold. The cells were treated with each compound at a concentration of 10 μM for 30 to 60 sec with the cell exterior solution.

[3] = HEK 293 cells expressing α1G, 30 to 60 sec treatment, read-out: inhibitory effect on peak current, HEK293 cells (α1G) at 10 μM
[4] = Table 3 title says MPG neuron, values equal HEK 293 (α1G) values of Table 2, read-out: Inhibitory effect, Ca2+ channel T-type (LVA)

T1 sequence (O54898 whole entry): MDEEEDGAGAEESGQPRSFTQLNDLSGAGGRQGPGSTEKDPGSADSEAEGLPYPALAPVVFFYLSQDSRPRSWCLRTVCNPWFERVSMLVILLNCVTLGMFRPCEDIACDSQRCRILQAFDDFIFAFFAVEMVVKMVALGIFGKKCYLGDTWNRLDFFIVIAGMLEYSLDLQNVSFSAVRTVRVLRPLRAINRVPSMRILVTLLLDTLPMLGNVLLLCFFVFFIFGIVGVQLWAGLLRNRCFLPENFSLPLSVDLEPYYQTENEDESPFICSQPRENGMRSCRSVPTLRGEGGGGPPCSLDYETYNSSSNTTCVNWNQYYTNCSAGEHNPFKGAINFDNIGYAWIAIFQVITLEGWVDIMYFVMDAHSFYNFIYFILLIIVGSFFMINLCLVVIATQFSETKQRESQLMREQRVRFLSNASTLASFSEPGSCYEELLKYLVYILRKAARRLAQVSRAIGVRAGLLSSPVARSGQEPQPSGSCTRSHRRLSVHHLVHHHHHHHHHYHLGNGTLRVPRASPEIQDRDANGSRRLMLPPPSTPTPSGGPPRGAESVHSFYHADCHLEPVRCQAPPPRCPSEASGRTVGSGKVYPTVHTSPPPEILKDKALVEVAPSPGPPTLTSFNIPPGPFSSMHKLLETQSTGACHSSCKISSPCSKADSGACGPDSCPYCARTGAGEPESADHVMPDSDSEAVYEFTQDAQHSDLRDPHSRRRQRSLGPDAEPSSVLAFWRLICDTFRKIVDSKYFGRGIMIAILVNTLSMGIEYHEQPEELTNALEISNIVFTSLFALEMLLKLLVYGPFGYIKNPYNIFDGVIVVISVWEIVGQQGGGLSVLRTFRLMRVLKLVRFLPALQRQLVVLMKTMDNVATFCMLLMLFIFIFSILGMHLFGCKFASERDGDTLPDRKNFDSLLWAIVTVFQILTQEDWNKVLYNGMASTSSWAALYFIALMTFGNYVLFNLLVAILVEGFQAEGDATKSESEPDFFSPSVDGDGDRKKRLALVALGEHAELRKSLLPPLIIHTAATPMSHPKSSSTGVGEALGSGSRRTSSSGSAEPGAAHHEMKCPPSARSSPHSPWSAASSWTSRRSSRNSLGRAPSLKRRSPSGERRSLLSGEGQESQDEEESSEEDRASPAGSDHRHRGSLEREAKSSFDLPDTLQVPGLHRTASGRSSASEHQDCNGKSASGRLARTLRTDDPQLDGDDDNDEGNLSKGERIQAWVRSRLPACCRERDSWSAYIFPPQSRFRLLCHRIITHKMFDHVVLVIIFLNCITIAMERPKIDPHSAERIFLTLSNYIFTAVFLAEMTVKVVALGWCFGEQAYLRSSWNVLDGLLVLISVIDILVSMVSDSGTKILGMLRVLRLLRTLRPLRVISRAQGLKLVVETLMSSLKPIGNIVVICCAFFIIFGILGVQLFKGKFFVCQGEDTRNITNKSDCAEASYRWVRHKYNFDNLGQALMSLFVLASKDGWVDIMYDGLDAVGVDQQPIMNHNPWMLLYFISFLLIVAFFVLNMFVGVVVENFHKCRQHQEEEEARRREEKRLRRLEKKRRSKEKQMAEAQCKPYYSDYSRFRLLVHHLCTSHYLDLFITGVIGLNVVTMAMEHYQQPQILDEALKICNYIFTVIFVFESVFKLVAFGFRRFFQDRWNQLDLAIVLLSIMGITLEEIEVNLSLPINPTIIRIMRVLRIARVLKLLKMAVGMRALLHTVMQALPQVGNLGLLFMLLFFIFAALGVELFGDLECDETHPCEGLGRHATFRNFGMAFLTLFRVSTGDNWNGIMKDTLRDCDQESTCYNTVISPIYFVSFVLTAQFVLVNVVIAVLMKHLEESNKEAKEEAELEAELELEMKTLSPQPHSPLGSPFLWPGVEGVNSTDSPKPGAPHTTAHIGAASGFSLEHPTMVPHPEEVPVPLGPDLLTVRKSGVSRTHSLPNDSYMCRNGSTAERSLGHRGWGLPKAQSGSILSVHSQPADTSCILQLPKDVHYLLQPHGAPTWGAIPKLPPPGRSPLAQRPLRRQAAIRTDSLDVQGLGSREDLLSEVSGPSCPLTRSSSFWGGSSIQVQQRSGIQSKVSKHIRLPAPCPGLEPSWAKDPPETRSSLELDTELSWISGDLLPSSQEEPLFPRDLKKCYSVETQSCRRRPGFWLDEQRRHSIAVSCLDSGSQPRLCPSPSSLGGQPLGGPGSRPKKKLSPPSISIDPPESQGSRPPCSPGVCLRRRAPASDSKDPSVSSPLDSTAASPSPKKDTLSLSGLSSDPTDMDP

Row | inhibition at 10 µM [2, 3] [%] | inhibition at 10 µM [2, 4] [%] | channel inhibitory effect relative to Mibefradil (comparing IC50 values) [2] | IC50 ([2]; HEK 293 cells expressing α1G) [nM] | SMILES | selectivity for the sub-types of the calcium channel (T-type LVA vs N-type HVA) [1] | Inhibitory effect, Ca2+ channel N-type (HVA) [1]
1 | 89.9 | 89.9 | about 3.4 fold | 250 | Cc1ccc(S(=O)(=O)Nc2ccc(CNC(=O)CC3c4ccccc4N=C(N4CCCCC4)N3c3ccccc3)cc2)cc1 (stereo not drawn) [KYS05041, 4-{N-[4-(4-methylbenzenesulfonylamido)benzyl]acetamido}-3-phenyl-2-(piperidine-1-yl)-3,4-dihydroquinazoline] | relatively lower selectivity | >89%
2 | 89 | 89 | ~4.2 fold | 200 | O=C(CC1c2ccccc2N=C(N2CCCCC2)N1c1ccccc1)NCc1ccc(NS(=O)(=O)c2ccc(F)cc2)cc1 (stereo not drawn) [KYS05042, 4-{N-[4-(4-fluorobenzenesulfonylamido)benzyl]acetamido}-3-phenyl-2-(piperidine-1-yl)-3,4-dihydroquinazoline] | relatively lower selectivity | >90%

Row | SMILES | inhibition at 10 µM [2, 3] [%] | inhibition at 10 µM [2, 4] [%] | channel inhibitory effect relative to Mibefradil (comparing IC50 values) [2] | IC50 ([2]; HEK 293 cells expressing α1G) [nM] | selectivity for the sub-types of the calcium channel (T-type LVA vs N-type HVA) [1] | Inhibitory effect, Ca2+ channel N-type (HVA) [1]
3 | O=C(CC1c2ccccc2N=C(N2CCCCC2)N1c1ccccc1)NCc1ccccc1 (stereo not drawn) [KYS05001] | 90.1 | 90.1 | almost the same calcium channel inhibitory effect as Mibefradil | 900 | selectively inhibited only the T-type (LVA) calcium channel | n.i.^b
